Legend:
[1] = tested on: Bacillus subtilis spores; assay: Assay of antibacterial activity (growth inhibition, absorbance at 690 nm) against Bacillus subtilis spores; assay type: cell-based; settings: spores 1×10^7/ml, nutrient broth pH 7.0, cultured overnight at 37° C., percent growth inhibition from absorbance at 690 nm
Protocol: (§1) Into each well, 50 μl of a nutrient broth (pH 7.0, NISSUI PHARMACEUTICAL CO., LTD.) was added and cultured overnight at 37° C. The light absorbance at 690 nm was measured both at the start and end of the culture by means of a micro-plate reader (Thermolab Systems, Finland). Based on the percent growth inhibition calculated from the following formula, a distribution diagram was constructed plotting percent inhibition and sample concentration on the two axes and the 50% inhibition (IC50) of the spore forming bacterium by the substances of the present invention was determined. Percent growth inhibition (%)=100×{Δ690 (not added)−Δ690 (sample added)}/Δ690 (not added) where Δ690 (not added) refers to the difference between the 690 nm values in the “not-added” group before and after the culture and Δ690 (sample added) refers to the difference between the 690 nm values in the “sample-added” group before and after the culture.

[2] = tested on: Alicyclobacillus acidoterrestris; assay: Assay of antibacterial activity (growth inhibition) against heat-resistant acidophilic spore-forming bacterium Alicyclobacillus acidoterrestris; assay type: cell-based; settings: culture temperature 45° C., liquid medium (yeast extract, soluble starch, glucose) adjusted to pH 3.8
Protocol: as §1
Activity against the heat-resistant acidophilic spore-forming bacterium Alicyclobacillus acidoterrestris was determined by taking the same procedure, except that a change was made in two points, the culture temperature condition and the type of liquid medium [culture temperature: 45° C.; liquid medium: 0.4% dry yeast extract (Difco Laboratories), 0.4% soluble starch (nacalai tesque), 1% glucose (nacalai tesque), adjusted to pH 3.8 with 1 N sulfuric acid].

3′(or 4′),3-di-O-octanoyl-(+)-D-catechin
IC50 (ppm) B. subtilis [1]: 3.125-6.25 ppm
IC50 (ppm) A. acidoterrestris [2]: 6.25-12.5 ppm

3′(or 4′),5-di-O-octanoyl-(+)-D-catechin
IC50 (ppm) B. subtilis [1]: 6.25-12.5 ppm
IC50 (ppm) A. acidoterrestris [2]: 6.25-12.5 ppm

3′(or 4′),7-di-O-octanoyl-(+)-D-catechin
IC50 (ppm) B. subtilis [1]: 6.25-12.5 ppm
IC50 (ppm) A. acidoterrestris [2]: 50-100 ppm

3′-O-cotanoyl and 4′-octanoyl-(+)-D-catechin
IC50 (ppm) B. subtilis [1]: 200-400 ppm
IC50 (ppm) A. acidoterrestris [2]: 25-50 ppm

CCCCCCCC(=O)Oc1cc(O)cc2c1C[C@H](OC(=O)CCCCCCC)[C@@H](c1ccc(O)c(O)c1)O2 [3,5-di-O-octanoyl-(+)-D-catechin]
IC50 (ppm) B. subtilis [1]: 100-200 ppm
IC50 (ppm) A. acidoterrestris [2]: 50-100 ppm

CCCCCCCC(=O)Oc1cc(O)c2c(c1)O[C@H](c1ccc(O)c(O)c1)[C@@H](OC(=O)CCCCCCC)C2 [3,7-di-O-octanoyl-(+)-D-catechin]
IC50 (ppm) B. subtilis [1]: 25-50 ppm
IC50 (ppm) A. acidoterrestris [2]: 12.5-25 ppm

CCCCCCCC(=O)Oc1ccc([C@H]2Oc3cc(O)cc(O)c3C[C@@H]2O)cc1OC(=O)CCCCCCC [3′4′-O-dioctanoyl-(+)-D-catechin]
IC50 (ppm) B. subtilis [1]: >400 ppm
IC50 (ppm) A. acidoterrestris [2]: 12.5-25 ppm

CCCCCCCC(=O)Oc1cc(OC(=O)CCCCCCC)c2c(c1)O[C@H](c1ccc(O)c(O)c1)[C@@H](O)C2 [5,7-di-O-octanoyl-(+)-D-catechin]
IC50 (ppm) B. subtilis [1]: >400 ppm
IC50 (ppm) A. acidoterrestris [2]: 100-200 ppm

Catechin [reference compound]
IC50 (ppm) B. subtilis [1]: >400 ppm
IC50 (ppm) A. acidoterrestris [2]: 50-100 ppm

Sucrose fatty acid ester [reference compound]
IC50 (ppm) B. subtilis [1]: 50-100 ppm
IC50 (ppm) A. acidoterrestris [2]: 100-200 ppm
